The source of these data is patent publication US12173309B2, “Compounds for increasing genome editing efficiency” (Max-Planck-Gesellschaft zur Förderung der Wissenschaften …, priority 2017, dated 2024).

One data set has as its system CD34^+ progenitor cells. Put plainly: PGE of HPRT with Cpf1 electroporation in non-pluripotent cells. The following applies: primary cells. The data set is classed as cell-based, human. The method, then:
(§1) Cells were grown at 37° C. in a humidified incubator gassed with 5% CO2. Media was replaced every day for stem cells and every second day for non-pluripotent cell lines. Cell cultures were maintained 4-6 days until ˜80% confluency, and subcultured at a 1:6 to 1:10 dilution.
(§2) The recombinant A.s. Cpf1 and S.p. Cas9 protein and electroporation enhancer was ordered from IDT (Coralville, USA) and nucleofection was done using the manufacturer's protocol, except for the following alterations. […] For multiplexing, only gRNAs and single stranded DNA donors were electroporated, since a Cas9n expressing iCRISPR-Cas9n hiPSC line was used. Cells were counted using the Countess Automated Cell Counter (Invitrogen).
(§3) Three days after lipofection cells were dissociated using Accutase (SIGMA, A6964), pelleted, and resuspended in 15 μl QuickExtract (Epicentre, QE0905T). Incubation at 65° C. for 10 min, 68° C. for 5 min and finally 98° C. for 5 min was performed to yield ssDNA as a PCR template. Primers for each targeted loci of CALD1, KATNA1 and SLITRK1 containing adapters for Illumina sequencing were ordered from IDT (Coralville, USA). PCR was done in a T100 Thermal Cycler (Bio-Rad) using the KAPA2G Robust PCR Kit (Peqlab, 07-KK5532-03) with supplied buffer B and 3 μl of cell extract in a total volume of 25 μl. The thermal cycling profile of the PCR was: 95° C.

A further data set has as its system CD4^+ T cells. The data set is described as above. The data set is classed as cell-based, human. The following applies: primary cells. The method, then:
as §1, §2, §3

The subject of the next data set is 409-B2 hiPSCs. Description: PGE efficiency with recombinant Cpf1 ribonucleoprotein electroporation. Type of data set: cell-based, human. The source says: The recombinant A.s. Cpf1 and S.p. Cas9 protein and electroporation enhancer was ordered from IDT (Coralville, USA) and nucleofection was done using the manufacturer's protocol, except for the following alterations. […] Cells were counted using the Countess Automated Cell Counter (Invitrogen). […]
CRISPresso (Pinello et al. 2016) was used to analyse sequencing data from CRISPR genome editing experiments for percentage of wildtype, targeted nucleotide substitutions (TNS), indels and mix of TNS and indels. […] Sequencing data from colonies after single cell seeding (FIGS. 3B and C) was further analyzed by evaluating the actual read sequences using SAMtools. Clonal colonies were differentiated from mixed colonies using sequence read proportions. Colonies were counted as clones if the clear majority of reads consisted of a single sequence (homozygous) or of two sequences of similar read count (heterozygous). […]

Data set [1] is described as follows: Solubility of stock in DMSO. The data set is classed as physicochemical. The following applies: 10 mM stock in DMSO. How it is done: Commercially available small molecules used in this study were NU7026 (SIGMA, […]), TSA (SIGMA, […]), MLN4924 (Adooq BioScience, A11260), NSC 19630 (Calbiochem, 681647), NSC 15520 (ChemBridge, 6048069), AICAR (SIGMA, A9978), RS-1 (Calbiochem, 553510), Resveratrol (Selleckchem, S1396), SCR7 (XcessBio, M60082-2s), L755507 (TOCRIS, 2197), B02 (SIGMA, SML0364) and STL127685 (Vitas-M). STL127685 is a 4-fluorophenyl analog of the non-commercially available STL127705. Stocks of 15 mM (or 10 mM for NU7026) were made using dimethylsulfoxide (DMSO)(Thermo Scientific, D12345). […] Suitable working solutions for different concentrations were made so that addition of each small molecule accounts for a final concentration of 0.08% (or 0.2% for NU7026) DMSO in the media. Addition of all small molecules would lead to a final concentration of 0.7% DMSO.

Take `NS(=O)(=O)OC[C@@H]1C[C@@H](n2ccc3c(N[C@H]4CCc5ccccc54)ncnc32)C[C@@H]1O` [MLN4924, Pevonedistat]: the “effect on PGE efficiency” value with CD34^+ progenitor cells and in the data set on CD4^+ T cells was “disruptive effect” throughout.

As to `O=c1cc(N2CCOCC2)oc2c1ccc1ccccc12` [NU7026], the PGE increase in the data set with 409-B2 hiPSCs (DMNT1) was found to be 2.4 fold; with 409-B2 hiPSCs (HPRT) it was 2.1 fold. For the same compound, in data set [1], the solubility entry was “limiting factor”.
